# From patent US20210253705A1, “METHODS AND AGENTS FOR TREATING ORGAN INJURY AND TRANSPLANT REJECTION” (The Regents of the University of California, priority 2020, published 2021)
# System: BALB/c airway allografts in C57BL/6 recipients
# Assay: Heterotopic subcutaneous tracheal/airway transplantation model of allograft rejection
# Assay type: in vivo, mice
# Conditions: recipients treated with CCR4 inhibitor, day 14
# Procedure: Each mouse was subcutaneously transplanted with two tracheas. Small molecule CCR4 inhibitor or antagonist C 021 dihydrochloride (Cat #3581, Tocris Bio-Techne, Minneapolis, Minn., USA) was resuspended in sterile DMSO to 100 mg/ml and diluted further in 1×PBS to be administered as intraperitoneal (i.p.) injections at 50 mg/kg daily starting at day −1 prior to tracheal transplantation until day 14 when allografts were harvested for rejection analysis.
# Histopathological Evaluation of Airway and Lung Transplants. Airway and lung graft tissues were fixed overnight in 4% paraformaldehyde, processed, paraffin-embedded, sectioned and stained with hematoxylin and eosin (H&E) or Elastin Trichrome. Three independent blinded reviewers calculated the degree of airway injury using a histological scoring system. All qualitative histological changes were evaluated and the total murine rejection score was calculated based on four pathological criteria: (a) airway lining epithelial loss, (b) deposition of extracellular matrix (ECM), (c) leukocyte infiltration, and (d) luminal fibro-obliteration due to granulation tissue formation and/or fibrosis. Each process was scored on a scale of 0-4 (0=normal, 1=mild, 2=moderate, 3=severe and 4=very severe) and added together for a total rejection score. […] Images were taken by Zeiss Axioskop 2 plus microscope and analyzed with AxioVision 4.2 imaging software. […]
smiles,measurement,value
"COc1cc2nc(N3CCC(N4CCCCC4)CC3)nc(NC3CCCCCC3)c2cc1OC.Cl.Cl [C 021 dihydrochloride, 2-[1,4′-bipiperidin]-1′-yl-N-cycloheptyl-6,7-dimethoxy-4-quinazolinamine dihydrochloride]",H&E histology of airway allografts,virtually normal epithelium and minimal matrix deposition without fibro-obliteration
